Tests used:
bedstraw = test: Test B pre/postemergence bedstraw; format: in vivo, Galium aparine
Method in brief: (§1)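 Herbicidal effect was estimated by eye on a ten-point control scale after plants spent twelve to sixteen days in a greenhouse following soil or foliar treatment. Foliar sprays targeted plants at one to four leaves; all doses were formulated in a non-phytotoxic solvent with surfactant.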

blackgrass = test: Test B pre/postemergence blackgrass; format: in vivo, Alopecurus myosuroides
Method in brief: as §1

surinam grass = test: Test B pre/postemergence surinam grass; format: in vivo, Brachiaria decumbens; conditions: Postemergence
Method in brief: as §1

cocklebur = test: Test B pre/postemergence cocklebur; format: in vivo, Xanthium strumarium
Method in brief: as §1

corn = test: Test B pre/postemergence corn; format: in vivo, Zea mays
Method in brief: as §1

crabgrass = test: Test B pre/postemergence crabgrass; format: in vivo, Digitaria sanguinalis
Method in brief: as §1

giant foxtail = test: Test B pre/postemergence giant foxtail; format: in vivo, Setaria faberii
Method in brief: as §1

morningglory = test: Test B pre/postemergence morningglory; format: in vivo, Ipomoea hederacea
Method in brief: as §1

pigweed = test: Test B pre/postemergence pigweed; format: in vivo, Amaranthus retroflexus
Method in brief: as §1

rape = test: Test B pre/postemergence rape; format: in vivo, Brassica napus
Method in brief: as §1

soybean = test: Test B pre/postemergence soybean; format: in vivo, Glycine max
Method in brief: as §1

sugar beet = test: Test B pre/postemergence sugar beet; format: in vivo, Beta vulgaris
Method in brief: as §1

velvetleaf = test: Test B pre/postemergence velvetleaf; format: in vivo, Abutilon theophrasti
Method in brief: as §1

wheat = test: Test B pre/postemergence wheat; format: in vivo, Triticum aestivum
Method in brief: as §1

wild oat = test: Test B pre/postemergence wild oat; format: in vivo, Avena fatua
Method in brief: as §1

purple nutsedge = test: Test B pre/postemergence purple nutsedge; format: in vivo, Cyperus rotundus
Method in brief: as §1

[1] = Postemergence, Rate 31 g/ha, visual rating, scale 0 to 10 (0 no effect, 10 complete control)
[2] = Postemergence, Rate 62 g/ha, scale 0 to 10, 0 is no effect, 10 is complete control
[3] = Postemergence, Rate 125 g/ha, scale of 0 to 10 where 0 is no effect and 10 is complete control
[4] = Preemergence, Rate 31 g/ha, visual rating, scale 0 to 10 (0 no effect, 10 complete control)
[5] = Preemergence, Rate 250 g/ha, scale 0 (no effect) to 10 (complete control)
[6] = Rate 62 g/ha, Preemergence, scale 0 to 10
[7] = Rate 125 g/ha, Preemergence, scale 0 to 10 (0 no effect, 10 complete control)
[8] = Rate 250 g/ha, Postemergence, scale 0 to 10, 0 is no effect, 10 is complete control

## CCOP(=O)(OCC)C(C)n1c(=O)on(C(=O)N(c2ccc(F)cc2F)C(C)C)c1=O (stereo not drawn) [Compound 776]
bedstraw; [1]
  Bedstraw plant response rating: 0
bedstraw; [2]
  Plant response rating, Bedstraw: 0
bedstraw; [3]
  Bedstraw plant response rating: 3
bedstraw; [4]
  Bedstraw plant response rating: 0
bedstraw; [5]
  Bedstraw plant response rating: 0
bedstraw; [6]
  Bedstraw plant response rating: 0
bedstraw; [7]
  Bedstraw plant response rating: 0
bedstraw; [8]
  Bedstraw plant response rating: 3
blackgrass; [1]
  Blackgrass plant response rating: 2
blackgrass; [2]
  Plant response rating, Blackgrass: 2
blackgrass; [3]
  Blackgrass plant response rating: 2
blackgrass; [4]
  Blackgrass plant response rating: 0
blackgrass; [5]
  Blackgrass plant response rating: 2
blackgrass; [6]
  Blackgrass plant response rating: 0
blackgrass; [7]
  Blackgrass plant response rating: 0
blackgrass; [8]
  Blackgrass plant response rating: 2
Surinam grass; Rate 31 g/ha, visual rating, scale 0 to 10 (0 no effect, 10 complete control)
  B. signalgrass plant response rating: 0
Surinam grass; Rate 62 g/ha, scale 0 to 10, 0 is no effect, 10 is complete control
  Plant response rating, B. signalgrass: 0
Surinam grass; Rate 125 g/ha, scale of 0 to 10 where 0 is no effect and 10 is complete control
  B. signalgrass plant response rating: 0
Surinam grass; Rate 250 g/ha, scale 0 to 10, 0 is no effect, 10 is complete control
  B. signalgrass plant response rating: 0
cocklebur; [1]
  Cocklebur plant response rating: 0
cocklebur; [2]
  Plant response rating, Cocklebur: 0
cocklebur; [3]
  Cocklebur plant response rating: 0
cocklebur; [4]
  Cocklebur plant response rating: 0
cocklebur; [8]
  Cocklebur plant response rating: 0
corn; [1]
  Corn plant response rating: 0
corn; [2]
  Plant response rating, Corn: 0
corn; [3]
  Corn plant response rating: 0
corn; [4]
  Corn plant response rating: 0
corn; [5]
  Corn plant response rating: 1
corn; [6]
  Corn plant response rating: 0
corn; [7]
  Corn plant response rating: 0
corn; [8]
  Corn plant response rating: 0
crabgrass; [1]
  Crabgrass plant response rating: 2
crabgrass; [2]
  Plant response rating, Crabgrass: 2
crabgrass; [3]
  Crabgrass plant response rating: 2
crabgrass; [4]
  Crabgrass plant response rating: 5
crabgrass; [5]
  Crabgrass plant response rating: 9
crabgrass; [6]
  Crabgrass plant response rating: 5
crabgrass; [7]
  Crabgrass plant response rating: 8
crabgrass; [8]
  Crabgrass plant response rating: 2
Giant foxtail; [1]
  Giant foxtail plant response rating: 2
Giant foxtail; [2]
  Plant response rating, Giant foxtail: 2
Giant foxtail; [3]
  Giant foxtail plant response rating: 2
Giant foxtail; [4]
  Giant foxtail plant response rating: 5
Giant foxtail; [5]
  Giant foxtail plant response rating: 9
Giant foxtail; [6]
  Giant foxtail plant response rating: 9
Giant foxtail; [7]
  Giant foxtail plant response rating: 9
Giant foxtail; [8]
  Giant foxtail plant response rating: 2
morningglory; [1]
  Morningglory plant response rating: 4
morningglory; [2]
  Plant response rating, Morningglory: 7
morningglory; [3]
  Morningglory plant response rating: 7
morningglory; [6]
  Morningglory plant response rating: 0
morningglory; [7]
  Morningglory plant response rating: 2
pigweed; [1]
  Redroot pigweed plant response rating: 0
pigweed; [2]
  Plant response rating, Redroot pigweed: 2
pigweed; [3]
  Redroot pigweed plant response rating: 2
pigweed; [6]
  Redroot pigweed plant response rating: 0
pigweed; [7]
  Redroot pigweed plant response rating: 0
pigweed; [8]
  Redroot pigweed plant response rating: 2
rape; [1]
  Rape plant response rating: 0
rape; [2]
  Plant response rating, Rape: 2
rape; [3]
  Rape plant response rating: 2
rape; [6]
  Rape plant response rating: 0
rape; [7]
  Rape plant response rating: 0
rape; [8]
  Rape plant response rating: 2
soybean; [1]
  Soybean plant response rating: 1
soybean; [2]
  Plant response rating, Soybean: 2
soybean; [6]
  Soybean plant response rating: 0
soybean; [7]
  Soybean plant response rating: 0
soybean; [8]
  Soybean plant response rating: 2
Sugar beet; [1]
  Sugarbeets plant response rating: 0
Sugar beet; [2]
  Plant response rating, Sugarbeets: 0
Sugar beet; [6]
  Sugarbeets plant response rating: 0
Sugar beet; [7]
  Sugarbeets plant response rating: 0
Sugar beet; [8]
  Sugarbeets plant response rating: 3
velvetleaf; [1]
  Velvetleaf plant response rating: 2
velvetleaf; [2]
  Plant response rating, Velvetleaf: 3
velvetleaf; [6]
  Velvetleaf plant response rating: 0
velvetleaf; [7]
  Velvetleaf plant response rating: 0
velvetleaf; [8]
  Velvetleaf plant response rating: 3
wheat; [1]
  Wheat plant response rating: 0
wheat; [2]
  Plant response rating, Wheat: 0
wheat; [6]
  Wheat plant response rating: 0
wheat; [7]
  Wheat plant response rating: 2
wheat; [8]
  Wheat plant response rating: 0
Wild oat; [1]
  Wild oats plant response rating: 0
Wild oat; [2]
  Plant response rating, Wild oats: 0
Wild oat; [6]
  Wild oats plant response rating: 2
Wild oat; [7]
  Wild oats plant response rating: 2
Wild oat; [8]
  Wild oats plant response rating: 0
Purple nutsedge; [1]
  Nutsedge plant response rating: 0
Purple nutsedge; [2]
  Plant response rating, Nutsedge: 0
Purple nutsedge; [3]
  Nutsedge plant response rating: 0
Purple nutsedge; [6]
  Nutsedge plant response rating: 0
Purple nutsedge; [8]
  Nutsedge plant response rating: 0

Source: patent publication US6737383B1, “Herbicidal oxadiazolidines” (priority 1999, dated 2004)
